Values quoted from earlier work in patent publication US10898463B2, “High-strength oral cannabinoid dosage forms” (ICDPHARMA LTD, priority 2016, dated 2021).

Settings: octanol/water
In the case of C=CCc1ccc(O)c(OC)c1 [Eugenol], the LogP is given as 2.66. In the case of CC1=CCC2C(C1)C2(C)C (stereo not shown) [Carene], the LogP is given as 4.32. For CC(C)=CCC[C@](C)(O)C1CC=C(C)CC1 (stereo partly shown) [Bisabolol], the LogP is given as 5.07. For COC(=O)c1ccccc1O [Methyl salicylate], the LogP is given as 2.3. In the case of CC12CCC(CC1=O)C2(C)C (stereo not shown) [Camphor], the LogP is given as 2.55. In the case of CC(C)=C1CC[C@@H](C)CC1=O [Pulegone], the LogP is listed as 3.08. In the case of C=C1CC/C=C(\C)CC[C@@H]2[C@@H]1CC2(C)C [Beta-caryophyllene], the LogP is listed as 4.72. For C=C1C2CCC(C2)C1(C)C (stereo not shown) [Camphene], the LogP is listed as 4.24. For C=CC(C)(O)CCC=C(C)CCC=C(C)C (stereo not shown) [Nerolidol], the LogP is given as 4.68. For C/C(=C\CO)CCC[C@H](C)CCC[C@H](C)CCCC(C)C [Phytol], the LogP is listed as 7.04. In the case of C=CC(=C)CCC=C(C)C [Myrcene], the LogP is given as 4.17. For C=C(C)[C@H]1CC=C(C)CC1 [Limonene], the LogP is listed as 2.38. In the case of Cc1ccc(C(C)C)c(O)c1 [Thymol], the LogP is listed as 3.28. In the case of Terpinene, the LogP is given as 4.5. For CC1=CCC(O)(C(C)C)CC1 (stereo not shown) [Terpinen-4-ol], the LogP is listed as 3.26. For Citronella, the LogP is given as 3.53. For CC12CCC(CC1)C(C)(C)O2 [Cineol], the LogP is given as 2.7. In the case of CC1=CCC2CC1C2(C)C (stereo not shown) [Alfa-pinene], the LogP is given as 4.37. For C=CC(C)(O)CCC=C(C)C (stereo not shown) [Linalool], the LogP is given as 2.65.
